Measured values from the supplement of paper PMC10307832.

What was measured:
Assay in all cases: relative viability (nuclei count vs DMSO), 5 days (fraction); higher = more cells survive
COR-L23 = tested on: COR-L23
Outline: (§1)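 Relative viability was taken as the ratio of nuclei in treated wells to nuclei in vehicle wells. Lung cancer cell lines in 1536-well plates received compounds by pin tool one day after seeding, either one drug alone or a fixed anchor-drug dose plus five library-drug doses (not always all listed) in √10 steps. Nuclei were counted on 4× images after 5 days of treatment, and values are medians of duplicate plates.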

NCI-H460 = tested on: NCI-H460
Outline: as §1

PC-14 = tested on: PC-14
Outline: as §1

NCI-H1563 = tested on: NCI-H1563
Outline: as §1

H3255 = tested on: H3255
Outline: as §1

LU99A = tested on: LU99A
Outline: as §1

SW 1573 = tested on: SW 1573
Outline: as §1

LCLC-97TM1 = tested on: LCLC-97TM1
Outline: as §1

NCI-H1650 = tested on: NCI-H1650
Outline: as §1

NCI-H1793 = tested on: NCI-H1793
Outline: as §1

201T = tested on: 201T
Outline: as §1

LC-2-ad = tested on: LC-2-ad
Outline: as §1

NCI-H2228 = tested on: NCI-H2228
Outline: as §1

NCI-H596 = tested on: NCI-H596
Outline: as §1

A-427 = tested on: A-427
Outline: as §1

LK-2 = tested on: LK-2
Outline: as §1

NCI-H727 = tested on: NCI-H727
Outline: as §1

SW 900 = tested on: SW 900
Outline: as §1

NCI-H2347 = tested on: NCI-H2347
Outline: as §1

NCI-H23 = tested on: NCI-H23
Outline: as §1

LCLC-103H = tested on: LCLC-103H
Outline: as §1

Compound: Nc1ccn([C@@H]2O[C@H](CO)[C@@H](O)[C@@H]2O)c(=O)n1 [Cytarabine] + Cc1nc(Nc2ncc(C(=O)Nc3c(C)cccc3Cl)s2)cc(N2CCN(CCO)CC2)n1 [Dasatinib] (partner 0.075 µM)
- relative viability (COR-L23; first compound 0.005 µM): 0.405
- relative viability (COR-L23; first compound 0.01581 µM): 0.312
- relative viability (COR-L23; first compound 0.05 µM): 0.287
- relative viability (COR-L23; first compound 0.1581 µM): 0.17
- relative viability (COR-L23; first compound 0.5 µM): 0.14
- relative viability (NCI-H460; first compound 0.005 µM): 0.394
- relative viability (NCI-H460; first compound 0.01581 µM): 0.259
- relative viability (NCI-H460; first compound 0.05 µM): 0.105
- relative viability (NCI-H460; first compound 0.1581 µM): 0.0311
- relative viability (NCI-H460; first compound 0.5 µM): 0.0213
- relative viability (PC-14; first compound 0.005 µM): 0.232
- relative viability (PC-14; first compound 0.01581 µM): 0.234
- relative viability (PC-14; first compound 0.05 µM): 0.18
- relative viability (PC-14; first compound 0.1581 µM): 0.0381
- relative viability (PC-14; first compound 0.5 µM): 0.0648
- relative viability (NCI-H1563; first compound 0.005 µM): 0.506
- relative viability (NCI-H1563; first compound 0.01581 µM): 0.466
- relative viability (NCI-H1563; first compound 0.05 µM): 0.46
- relative viability (NCI-H1563; first compound 0.1581 µM): 0.383
- relative viability (NCI-H1563; first compound 0.5 µM): 0.393
- relative viability (H3255; first compound 0.005 µM): 0.363
- relative viability (H3255; first compound 0.01581 µM): 0.3
- relative viability (H3255; first compound 0.05 µM): 0.273
- relative viability (H3255; first compound 0.1581 µM): 0.199
- relative viability (H3255; first compound 0.5 µM): 0.319
- relative viability (LU99A; first compound 0.005 µM): 0.563
- relative viability (LU99A; first compound 0.01581 µM): 0.647
- relative viability (LU99A; first compound 0.05 µM): 0.58
- relative viability (LU99A; first compound 0.1581 µM): 0.578
- relative viability (LU99A; first compound 0.5 µM): 0.364
- relative viability (SW 1573; first compound 0.005 µM): 0.34
- relative viability (SW 1573; first compound 0.01581 µM): 0.333
- relative viability (SW 1573; first compound 0.05 µM): 0.381
- relative viability (SW 1573; first compound 0.1581 µM): 0.122
- relative viability (SW 1573; first compound 0.5 µM): 0.089
- relative viability (LCLC-97TM1; first compound 0.005 µM): 0.795
- relative viability (LCLC-97TM1; first compound 0.01581 µM): 0.839
- relative viability (LCLC-97TM1; first compound 0.05 µM): 0.798
- relative viability (LCLC-97TM1; first compound 0.1581 µM): 0.227
- relative viability (LCLC-97TM1; first compound 0.5 µM): 0.264
- relative viability (NCI-H1650; first compound 0.005 µM): 0.257
- relative viability (NCI-H1650; first compound 0.01581 µM): 0.234
- relative viability (NCI-H1650; first compound 0.05 µM): 0.177
- relative viability (NCI-H1650; first compound 0.1581 µM): 0.136
- relative viability (NCI-H1650; first compound 0.5 µM): 0.122
- relative viability (NCI-H1793; first compound 0.005 µM): 0.364
- relative viability (NCI-H1793; first compound 0.01581 µM): 0.37
- relative viability (NCI-H1793; first compound 0.05 µM): 0.387
- relative viability (NCI-H1793; first compound 0.1581 µM): 0.257
- relative viability (NCI-H1793; first compound 0.5 µM): 0.191
- relative viability (201T; first compound 0.005 µM): 0.659
- relative viability (201T; first compound 0.01581 µM): 0.642
- relative viability (201T; first compound 0.05 µM): 0.709
- relative viability (201T; first compound 0.1581 µM): 0.444
- relative viability (201T; first compound 0.5 µM): 0.501
- relative viability (LC-2-ad; first compound 0.005 µM): 0.358
- relative viability (LC-2-ad; first compound 0.01581 µM): 0.308
- relative viability (LC-2-ad; first compound 0.05 µM): 0.347
- relative viability (LC-2-ad; first compound 0.1581 µM): 0.225
- relative viability (LC-2-ad; first compound 0.5 µM): 0.214
- relative viability (NCI-H2228; first compound 0.005 µM): 0.299
- relative viability (NCI-H2228; first compound 0.01581 µM): 0.158
- relative viability (NCI-H2228; first compound 0.05 µM): 0.159
- relative viability (NCI-H2228; first compound 0.1581 µM): 0.0724
- relative viability (NCI-H2228; first compound 0.5 µM): 0.0511
- relative viability (NCI-H596; first compound 0.005 µM): 0.606
- relative viability (NCI-H596; first compound 0.01581 µM): 0.477
- relative viability (NCI-H596; first compound 0.05 µM): 0.601
- relative viability (NCI-H596; first compound 0.1581 µM): 0.48
- relative viability (NCI-H596; first compound 0.5 µM): 0.427
- relative viability (A-427; first compound 0.005 µM): 0.591
- relative viability (A-427; first compound 0.01581 µM): 0.215
- relative viability (A-427; first compound 0.05 µM): 0.195
- relative viability (A-427; first compound 0.1581 µM): 0.141
- relative viability (A-427; first compound 0.5 µM): 0.135
- relative viability (LK-2; first compound 0.005 µM): 0.309
- relative viability (LK-2; first compound 0.01581 µM): 0.27
- relative viability (LK-2; first compound 0.05 µM): 0.236
- relative viability (LK-2; first compound 0.1581 µM): 0.157
- relative viability (LK-2; first compound 0.5 µM): 0.163
- relative viability (NCI-H727; first compound 0.005 µM): 0.319
- relative viability (NCI-H727; first compound 0.01581 µM): 0.303
- relative viability (NCI-H727; first compound 0.05 µM): 0.447
- relative viability (NCI-H727; first compound 0.1581 µM): 0.271
- relative viability (NCI-H727; first compound 0.5 µM): 0.294
- relative viability (SW 900; first compound 0.005 µM): 0.837
- relative viability (SW 900; first compound 0.01581 µM): 0.446
- relative viability (SW 900; first compound 0.05 µM): 0.314
- relative viability (NCI-H2347; first compound 0.005 µM): 0.321
- relative viability (NCI-H2347; first compound 0.01581 µM): 0.307
- relative viability (NCI-H2347; first compound 0.05 µM): 0.241
- relative viability (NCI-H2347; first compound 0.1581 µM): 0.274
- relative viability (NCI-H2347; first compound 0.5 µM): 0.201
- relative viability (NCI-H23; first compound 0.005 µM): 0.864
- relative viability (NCI-H23; first compound 0.01581 µM): 0.541
- relative viability (NCI-H23; first compound 0.05 µM): 0.655
- relative viability (NCI-H23; first compound 0.1581 µM): 0.236
- relative viability (NCI-H23; first compound 0.5 µM): 0.187
- relative viability (LCLC-103H; first compound 0.005 µM): 0.449
- relative viability (LCLC-103H; first compound 0.01581 µM): 0.507
- relative viability (LCLC-103H; first compound 0.05 µM): 0.486
- relative viability (LCLC-103H; first compound 0.1581 µM): 0.353
- relative viability (LCLC-103H; first compound 0.5 µM): 0.445
